{"source": "BindingDB's records for doi:10.7270/Q24X565S", "about": "(The Scripps Research Institute Molecular Screening Center, 2007)", "note": "Counter-ions that a name gives are not always drawn.", "data": [{"target": "cAMP-dependent protein kinase catalytic subunit alpha (Homo sapiens, UniProt P17612)", "test": "PKA catalytic subunit inhibitors, dose response, biochemical, Kinase-Glo luminescence, Kemptide substrate (AID 548)", "conditions": "not given", "units": {"IC50": "µM"}, "values": [{"smiles": "C1=C(c2c[nH]c3ccccc23)CCNC1", "IC50": "> 59.6"}, {"smiles": "O=C(CSc1nnc(-c2ccncc2)[nH]1)c1ccccc1", "IC50": 24.6}, {"smiles": "Nc1[nH]nc2nc(N3CCCC3)nc(-c3ccccc3)c12", "IC50": "> 59.6"}, {"smiles": "c1ccc(CCCNc2[nH]cnc3ncnc2-3)cc1", "IC50": 39.5}, {"smiles": "c1ccc2c(-c3ccncc3)c[nH]c2c1", "IC50": 11.3}, {"smiles": "CCN1CCN(Cc2nnnn2C(C)(C)C)CC1", "note": "[1-(1-tert-Butyl-1H-tetrazol-5-ylmethyl)-4-ethyl-piperazine]", "IC50": "> 59.6"}, {"smiles": "CC(=O)n1cc(-c2ccncc2)c2ccccc21", "note": "[1-(3-pyridin-4-yl-1-indolyl)ethanone;hydrochloride]", "IC50": 45}, {"smiles": "COc1cc2c(cc1NC(=O)COC(=O)Cn1cnc3ccccc31)oc1ccccc12", "note": "[2-(1-benzimidazolyl)acetic acid [2-[(2-methoxy-3-dibenzofuranyl)amino]-2-oxoethyl] ester]", "IC50": 37.5}, {"smiles": "COc1ccc2c(Cl)c(C(N)=O)sc2c1", "note": "[3-Chloro-6-methoxy-benzo[b]thiophene-2-carboxylic acid amide]", "IC50": "> 59.6"}, {"smiles": "CCC1CCCCN1c1nc(-c2ccncc2)nc2ccccc12", "note": "(centres undefined) [4-(2-ethyl-1-piperidinyl)-2-pyridin-4-ylquinazoline]", "IC50": 13.6}, {"smiles": "Nc1nonc1-n1nncc1-c1ccccc1", "note": "[4-(5-phenyl-1,2,3-triazol-1-yl)-1,2,5-oxadiazol-3-amine]", "IC50": "> 59.6"}, {"smiles": "Cc1ccc(SCc2nc(-c3ccncc3)no2)cc1", "note": "[4-(5-{[(4-methylphenyl)thio]methyl}-1,2,4-oxadiazol-3-yl)pyridine]", "IC50": "> 59.6"}, {"smiles": "O=C(CCCOc1ccccc1)Nc1ccncc1", "note": "[4-Phenoxy-N-pyridin-4-yl-butyramide]", "IC50": "> 59.6"}, {"smiles": "Fc1ccccc1N1CCN(c2ncnc3n[nH]cc23)CC1", "note": "[4-[4-(2-fluorophenyl)piperazin-1-yl]-1H-pyrazolo[3,4-d]pyrimidine]", "IC50": 52.3}, {"smiles": "Clc1ccc(OCCN2CCN(c3ncnc4sccc34)CC2)cc1", "note": "[4-[4-[2-(4-chloranylphenoxy)ethyl]piperazin-1-yl]thieno[2,3-d]pyrimidine]", "IC50": 59.2}, {"smiles": "Cc1ccc(S(=O)(=O)NCCSc2nnnn2-c2ccc(C(N)=O)cc2)cc1", "note": "[4-[5-[2-(tosylamino)ethylthio]tetrazol-1-yl]benzamide]", "IC50": 10.4}, {"smiles": "Cn1c(SCc2ccc(Br)cc2)nnc1-c1ccncc1", "note": "[4-[5-[(4-bromobenzyl)thio]-4-methyl-1,2,4-triazol-3-yl]pyridine]", "IC50": "> 59.6"}, {"smiles": "Nc1c(S(=O)(=O)c2cccc(Cl)c2)c2c(n1N=CC1=CC(=O)C(=O)C=C1)Nc1ccccc1N2", "note": "[4-[[2-azanyl-3-(3-chlorophenyl)sulfonyl-4,9-dihydropyrrolo[3,2-b]quinoxalin-1-yl]iminomethyl]cyclohexa-3,5-diene-1,2-dione]", "IC50": "> 59.6"}, {"smiles": "Cc1c2ccncc2c(C)c2c1[nH]c1ccccc12", "note": "[5,11-dimethyl-2H-pyrido[4,3-b]carbazole]", "IC50": 4.09}, {"smiles": "c1nc(N2CCCC2)c2[nH]cnc2n1", "note": "[6-(1-pyrrolidinyl)-7H-purine]", "IC50": 35.6}, {"smiles": "c1ccc(Cn2ncc3c2ncn2c(-c4ccncc4)nnc32)cc1", "note": "[7-Benzyl-3-pyridin-4-yl-7H-pyrazolo[4,3-e][1,2,4]triazolo[4,3-c]pyrimidine]", "IC50": "> 19.9"}, {"smiles": "CCc1cc2c(O)ncnc2s1", "note": "[MLS000029626]", "IC50": "> 59.6"}, {"smiles": "Cc1cc2c(ccc3[nH]onc32)n1", "note": "[MLS000038925]", "IC50": 50.5}, {"smiles": "CN(C(=O)COc1ccccc1)c1nnc(-c2ccncc2)s1", "note": "[MLS000075421]", "IC50": "> 59.6"}, {"smiles": "c1ccc(Cn2ncc3c2ncn2nc(-c4ccncc4)nc32)cc1", "note": "[MLS000078634]", "IC50": "> 19.9"}, {"smiles": "Cc1cc2ccccc2c(=O)n1CC(=O)Nc1ccc2c(c1)OCO2", "note": "[MLS000086255]", "IC50": "> 59.6"}, {"smiles": "O=NCc1c[nH]c2ccccc12", "note": "[MLS000104363]", "IC50": 34.4}, {"smiles": "Cc1cccc(NC(=O)CSc2n[nH]c(-c3ccncc3)n2)c1", "note": "[N-(3-methylphenyl)-2-[(5-pyridin-4-yl-1H-1,2,4-triazol-3-yl)thio]acetamide]", "IC50": "> 59.6"}, {"smiles": "c1nc(NC2CCCCC2)c2[nH]cnc2n1", "note": "[N-cyclohexyl-7H-purin-6-amine]", "IC50": 8.94}, {"smiles": "Fc1cc2nc(-c3ccncc3)[nH]c2cc1F", "note": "[SMR000040673]", "IC50": "> 59.6"}, {"smiles": "CCOc1ccc2nc3ccc4[nH]onc4c3c2c1", "note": "[SMR000111865]", "IC50": "> 59.6"}]}, {"target": "cAMP-dependent protein kinase catalytic subunit alpha (Homo sapiens, UniProt P17612)", "test": "PKA catalytic subunit inhibitors, dose response, biochemical, Kinase-Glo luminescence, Kemptide substrate (AID 548)", "conditions": "inactive by the depositor's call", "units": {"IC50": "µM"}, "values": [{"smiles": "NC(=O)c1sc2nc(N3CCCCC3)c3c(c2c1N)CCCC3", "note": "[1-amino-5-(1-piperidinyl)-6,7,8,9-tetrahydrothieno[2,3-c]isoquinoline-2-carboxamide]", "IC50": 358}, {"smiles": "Fc1ccccc1Cn1nnc2c(-n3ccnc3)ncnc21", "note": "[3-(2-Fluoro-benzyl)-7-imidazol-1-yl-3H-[1,2,3]triazolo[4,5-d]pyrimidine]", "IC50": 231}, {"smiles": "CC1(C)Cc2c(c(-c3ccco3)nc3n[nH]c(N)c23)CO1", "note": "[SMR000045457]", "IC50": 70.1}]}]}
